# Assay results published in patent US5622947A, “Benzoheterocyclic compounds and vasopressin antagonist and oxytocin antagonist compositions containing a benzoheterocyclic compound” (Otsuka Pharmaceutical Co., Ltd., priority 1992, dated 1997).
# Structures can show the parent of a compound that is named as a salt.
# Columns and labels:
# [1] = target: T1, V1 Recepter (rat liver plasma membrane preparations) (Rattus norvegicus, UniProt P30560); assay: V1 Recepter binding assay; details: [3H]-Arg-vasopressin 2×10^-10 M, 37° C., 10 minutes, pH 8.0, rat liver plasma membrane
# T1 construct: rat liver plasma membrane preparations; from tissue; host or cells: rat liver plasma membranes
# T1 sequence (P30560 whole entry): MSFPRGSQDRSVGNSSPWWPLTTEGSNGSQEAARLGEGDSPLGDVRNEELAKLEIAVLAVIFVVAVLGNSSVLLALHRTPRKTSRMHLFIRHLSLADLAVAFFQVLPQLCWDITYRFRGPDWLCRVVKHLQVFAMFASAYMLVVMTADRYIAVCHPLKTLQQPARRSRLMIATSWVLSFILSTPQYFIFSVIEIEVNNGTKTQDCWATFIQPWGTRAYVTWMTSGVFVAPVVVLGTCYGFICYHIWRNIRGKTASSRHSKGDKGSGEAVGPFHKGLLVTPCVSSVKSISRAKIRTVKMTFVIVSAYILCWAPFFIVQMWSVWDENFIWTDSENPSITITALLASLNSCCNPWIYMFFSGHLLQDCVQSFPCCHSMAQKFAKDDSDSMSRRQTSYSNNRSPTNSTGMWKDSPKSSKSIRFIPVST
# Description: Test-1: V1 Recepter binding assay
# By using rat liver plasma membrane preparations prepared according to Ichiraha's method [by Akira Ichihara: J. Bio. Chem., 258, 9283 (1983)], the plasma membrane (50,000 dpm, 2×10^-10 M) of [^3 H]-Arg-vasopressin and a test compound (60 μg, 10^-8 to 10^-4 M) were incubated at 37° C. for 10 minutes in 250 μl (in total volume) of 100 mM Tris-HCl buffer (pH=8.0), containing 5 mM MgCl2, 1 mM EDTA and 0.1% BSA. After the incubation, the mixture was filtered three times by using a glass filter (GF/F) so as to separate the membrane preparation by combining with vasopressin and then washed with the buffer (5 ml). This glass filter was taken out and mixed with a liquid of scintillation cocktail. The amount of [^3 H]-vasopressin combining with the membrane was measured by liquid scintillation counter and the rate of inhibitory effect of the test compound was calculated according to the following equation: […]
# C1 : the amount of [^3 H]-vasopressin combining with the membrane in the presence of the test compound of a known amount,
# (§1) C0 : the amount of [^3 H]-vasopressin combining with the membrane in the absence of the test compound,
# B1 : the amount of [^3 H]-vasopressin combining with the membrane in the presence of the excess amount of vasopressin (10^-6 M).
# The results are expressed as IC50 value, which is the concentration of the test compound required to achieve the inhitory effect in the rate of 50% and are shown in the following Table 156.
# [2] = target: T2, V2 Recepter (rat kidney plasma membrane preparations) (Rattus norvegicus, UniProt Q00788); assay: V2 Recepter binding assay; details: [3H]-Arg-vasopressin 4×10^-10 M, 4° C., pH 8.0, rat kidney plasma membrane
# T2 construct: rat kidney plasma membrane preparations; from tissue; host or cells: rat kidney plasma membranes
# T2 sequence (Q00788 whole entry): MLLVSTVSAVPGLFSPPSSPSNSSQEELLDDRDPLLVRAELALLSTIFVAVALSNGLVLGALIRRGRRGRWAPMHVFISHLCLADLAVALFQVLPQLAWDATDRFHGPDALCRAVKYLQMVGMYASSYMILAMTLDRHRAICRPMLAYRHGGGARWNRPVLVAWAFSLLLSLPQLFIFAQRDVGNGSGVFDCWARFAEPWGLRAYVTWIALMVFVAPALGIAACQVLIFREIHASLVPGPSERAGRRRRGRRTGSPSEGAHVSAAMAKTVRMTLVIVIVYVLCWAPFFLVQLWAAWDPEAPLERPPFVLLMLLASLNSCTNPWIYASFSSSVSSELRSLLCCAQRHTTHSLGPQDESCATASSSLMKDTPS
# Description: Test 2: V2 Recepter binding assay
# By using rat kidney plasma membrane preparations prepared according to Hechter's method [by O. Hechter: J. Bio. Chem., 2.53, 3211 (1978)], the plasma membrane (100,000 dpm, 4×10^-10 M) of [^3 H]-Arg-vasopressin and a test compound (0.6 mg, 10^-10 to 10^-5 M) were incubated at 4° C. for 3 hours in 250 μl (in total volume) of 100 mM Tris-HCl buffer (pH=8.0), containing, 5 mM MgCl2, 1 mM EDTA and 0.1% BSA. After the incubation, the mixture, the mixture was filtered by using a glass filter (GF/F) so as to separate the membrane preparation combining with vasopressin, then washed twice with the buffer (5 ml). This glass filter was taken out and mixed with liquid scintillation cocktail. The amount of [^3 H]-vasopressin combining with the membrane was measured by a liquid scintillation counter and the rate of inhibitory effect of the test compound was calculated according to the following equation: Rate of the inhibitory
# C1 : the amount of [^3 H]-vasopressin combining with the membrane in the presence of the testcompound of a known amount,
# as §1
# B1 : the amount of [^3 H]-vasopressin combining with the mebrane in the presence of the excess amount of vasopressin (10^-6 M).
# The results are expressed as IC50 value, which is the concentration of the test compound required to achieve the inhibitory effect in the rate of 50%, and are shown in the following Table 157.
# [3] = target: T3, Oxytocin receptor (uterin muscle membrane preparation) (Rattus norvegicus, UniProt P70536); assay: Oxytocin receptor binding assay; details: [3H]-oxytocin 10^-9 M, 25°, one hour, pH 8.0, uterin muscle membrane, DES-treated
# T3 construct: was homogenized, which was used as a membrane; from tissue; host or cells: uterine muscle membranes from diethylstilbestrol-treated animals
# T3 sequence (P70536 1-388): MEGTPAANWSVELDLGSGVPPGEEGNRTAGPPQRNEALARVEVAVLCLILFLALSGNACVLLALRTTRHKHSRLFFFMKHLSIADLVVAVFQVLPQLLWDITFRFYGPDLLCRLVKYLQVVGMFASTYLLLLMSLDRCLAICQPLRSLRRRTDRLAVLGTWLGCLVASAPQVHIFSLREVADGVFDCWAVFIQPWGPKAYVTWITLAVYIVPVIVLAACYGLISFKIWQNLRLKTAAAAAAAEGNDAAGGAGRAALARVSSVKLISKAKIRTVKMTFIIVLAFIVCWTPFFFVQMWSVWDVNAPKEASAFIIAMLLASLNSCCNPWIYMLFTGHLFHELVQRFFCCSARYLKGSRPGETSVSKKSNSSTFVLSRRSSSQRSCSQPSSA
# Description: Test-5 Oxytocin receptor binding assay
# In accordance with Chan's method [by W. Y. Chan, et al.: Endocrinology, 126, 2095-2101 (1990)], the uterin muscle benn injected subcutaneously with diethylstilbe-sterol (DES) the day before and was homogenized, which was used as a membrane prepara tion. The membrane preparation (0.2 mg), [^3 H]-oxytocin (100,000 dpm, 10^-9 M), a test compound (10^-9 to 10^-5 M) were incubated at 25°. for one hour in 100 mM Tris-HCl buffer (pH=8.0, 250 μl) containing 5 mM MgCl2, 1 mM EDTA and 0.1% BSA. The mixture was filtered through a glass filter (GF/F) so as to separate the membrane preparation combining with [^3 H]-oxytocin, then, was washed twicw with the buffer (5 ml). The glass filter was put into a vial and mixed with Aquasole (a liquid scintillation cocktail). The amount of [^3 H]-oxytocin combining w ith the membrane was measured by a liquid scintillation counter. The rate of the inhibitory effect of the test compound was calculated according to the equation as follows: […]
# C1 : the amount of [^3 H]-oxytocin combining with the membrane in the presence of a test compound (in known amount),
# C0 : the amount of [^3 H]-oxytocin combinig with the membrane in the absence of a test compound,
# B: the amount of [^3 H]-oxytocin combining with the membrane in the presence of the excess amount of oxytocin (5×10^-6 M).
# The results are expressed as IC50 values, which is the concentration of the test compound required to achieve the inhibitory effect in the rate of 50%.
Compound,IC50 [1] [nM],IC50 [2] [nM],IC50 [3] [nM]
"CCN(CC)CCCNCCOC1CCCN(C(=O)c2ccc(NC(=O)c3ccccc3Cl)cc2OC)c2ccc(Cl)cc21 (centres unmarked) [Example 153, 5-[2-(3-Diethylaminopropyl)aminoethoxy]-7-chloro-1-[2-methoxy-4-(2-chlorobenzoylamino)benzoyl]-2,3,4,5-tetrahydro-1H-benzoazepine]",36,5,248
"CCN1CCN(C(=O)CCOC2CCCN(C(=O)c3ccc(N4Cc5ccccc5C4=O)cc3)c3ccc(Cl)cc32)CC1 (centres unmarked) [Example 132, 5-(4-Ethyl-1-piperazinyl)carbonylethoxy-7-chloro-1-[4-(1-oxoisoindolin-2-yl)benzoyl]-2,3,4,5-tetrahydro-1H-benzoazepine]",90,120,478
"CCN(CC)CCOC1CCCN(C(=O)c2ccc(N3Cc4ccccc4C3=O)cc2)c2ccc(Cl)cc21 (centres unmarked) [Example 131, 5-(2-Diethylaminoethoxy)-7-chloro-1-[4-(1-oxoisoindolin-2-yl)benzoyl]-2,3,4,5-tetrahydro-1H-bezoazepine]",32,170,1790
"COc1cc(NC(=O)c2ccccc2Br)ccc1C(=O)N1CCCC(OCCNS(=O)(=O)C(F)(F)F)c2cc(Cl)ccc21 (centres unmarked) [Example 152, 5-(2-Trifluoromethylsulfonylaminoethoxy)-7-chloro-1-[2-methoxy-4-(2-bromobenzoylamino)benzoyl]-2,3,4,5-tetrahydro-1H-benzoazepine]",41,61,1640
"CC(C)NCCCCOc1ccccc1C(=O)Nc1ccc(C(=O)N2CCCC(CC(=O)N(C)C)c3cc(Cl)ccc32)cc1 (centres unmarked) [Example 162, 5-Dimethylaminocarbonylmethyl-7-chloro-1-{4-[2-(4-isopropylaminobutoxy)benzoylamino]-benzoyl}-2,3,4,5-tetrahydro-1H-benzoazepine]",9.2,130,
COc1cc(NC(=O)c2ccccc2Cl)ccc1C(=O)N1CCCC(OCCNCC#N)c2cc(Cl)ccc21 (centres unmarked) [Example 151],46,8,
"CNC(=NC#N)NCCOC1CCCN(C(=O)c2ccc(NC(=O)c3ccccc3Cl)cc2OC)c2ccc(Cl)cc21 (centres unmarked) [Example 149, 5-[2-(3-Methyl-2-cyanogianidino)ethoxy]-7-chloro-1-[2-methoxy-4-(2-chlorobenzoylamino)benzoyl]-2,3,4,5-tetrahydro-1H-benzoazepine]",90,45,

# The remaining compounds from weak to strong by IC50 [1], led by results:
IC50 [1] [nM],IC50 [2] [nM],IC50 [3] [nM],Compound
31,14,130,"COc1cc(NC(=O)c2ccccc2Cl)ccc1C(=O)N1CCCC(CC(=O)Nc2ccccc2Cl)c2cc(Cl)ccc21 (centres unmarked) [Example 158, 5-(2-Chloroanilino)carbonylmethyl-7-chloro-1-[2-methoxy-4-(2-chlorobenzoylamino)benzoyl]-2,3,4,5-tetrahydro-1H-benzoazepine]"
16,9,471,"COc1cc(NC(=O)c2ccccc2Cl)ccc1C(=O)N1CCCC(OCCNCc2ccccc2)c2cc(Cl)ccc21 (centres unmarked) [Example 150, 5-(2-Benzylaminoethoxy)-7-chloro-1-[2-methoxy-4-(2-chlorobenzoylamino)benzoyl]-2,3,4,5-tetrahydro-1H-benzoazepine]"
9,2.5,,"COc1cc(NC(=O)c2ccccc2Cl)ccc1C(=O)N1CCCC(CC(=O)NCCN(C)C)c2cc(Cl)ccc21 (centres unmarked) [Example 89, 5-(2-Dimethylaminoethylamino)carbonylmethyl-7-chloro-1-[2-methoxy-4-(2-chlorobenzoylamino)benzoyl]-2,3,4,5-tetrahydro-1H-benzoazepine.cndot.hydrochloride]"
7,80,,"COc1cc(C(=O)N2CCCCc3cc(Cl)ccc32)ccc1NC(=O)c1ccccc1OCCCn1cncn1 [Example 73, 7-Chloro-1-[3-methoxy-4-{2-[3-(1,2,4-triazol-1-yl)-propoxy]benzoylamino}benzoyl]-2,3,4,5-tetrahydro-1H-benzoazepine]"
4.8,10,,"COc1cc(C(=O)N2CCCC(OCC(=O)N3CCCN(C)CC3)c3cc(Cl)ccc32)ccc1NC(=O)c1ccccc1Br (centres unmarked) [Example 166, 5-(4-Methyl-1-homopiperazinyl)carbonylmethoxy-7-chloro-1-[3-methoxy-4-(2-bromobenzoylamino)benzoyl]-2,3,4,5-tetrahydro-1H-benzoazepine]"
3.6,4.3,,"CCN(CCN(C)C)C(=O)COC1CCCN(C(=O)c2ccc(NC(=O)c3ccccc3Br)c(OC)c2)c2ccc(Cl)cc21 (centres unmarked) [Example 165, 5-[N-(2-Dimethylaminoethyl)-N-ethylamino]-carbonylmethoxy-7-chloro-[3-methoxy-4-(2-bromobenzoylamino)benzoyl]-2,3,4,5-tetrahydro-1H-benzoazepine]"
2.6,3.5,,"CCN(CC)CCN(C)C(=O)CC1CCCN(C(=O)c2ccc(NC(=O)c3ccccc3Br)c(OC)c2)c2ccc(Cl)cc21 (centres unmarked) [Example 91, 5-[N-Methyl-N-(2-diethylaminoethyl)amino]-carbonylmethyl-7-chloro-1-[3-methoxy-4-(2-bromobenzoylamino)benzoyl]-2,3,4,5-tetrahydro-1H-benzoazepine]"
1.8,8,,"COc1cc(C(=O)N2CCCC(CC(=O)N(C)CCN(C)C)c3cc(Cl)ccc32)ccc1NC(=O)c1ccccc1Br (centres unmarked) [Example 163, 5-[N-(2-Dimethylaminoethyl)-N-methylamino]-carbonylmethyl-7-chloro-1-[3-methoxy-4-(2-bromobenzoylamino)benzoyl]-2,3,4,5-tetrahydro-1H-benzoazepine]"
1.2,74,,"COc1cc(C(=O)N2CCCCc3cc(Cl)ccc32)ccc1NC(=O)c1ccccc1OCCCN1CCC(NC(C)=O)CC1 (single isomer, unassigned) [Example 72, 7-Chloro-1-[3-methoxy-4-{2-[3-(4-acetylamino-1-piperidinyl)propoxy]benzoylamino}benzoyl]-2,3,4,5-tetrahydro-1H-benzoazepine]"
